# From patent publication US11932653B2, “Lycorine derivative, and pharmaceutical composition and use thereof” (priority 2018, dated 2024)
# Several values for one entry are separate records, joined by “and”; a condition that tells them apart may be missing. Identical values can stand only once.
# Experiments:
# [1] = Pharmacokinetic experiment in plasma; type: in vivo; conditions: male ICR mice, Compound 6 1.5 mg/kg ip
# Experimental: Male ICR mice weighing 20-22 g were intraperitoneally injected with Compound 6 (1.5 mg/kg), and then blood was taken from the orbit at 5 min, 10 min, 15 min, 30 min, 1 h, 2 h, 4 h, 6 h, 8 h, 12 h, and 24 h. The heparin anticoagulant was added, placed on ice, and centrifuged at 7000 r/min for 7 min. The plasma was separated for use. 60 μl of acetonitrile was added to 20 μL of the plasma sample obtained after administration, to precipitate the protein. After high-speed centrifugation at 13300 r/min for 7 min, 60 μl of the supernatant was taken and centrifuged at 13300 r/min for 4 min. 5 μl of the supernatant was taken for UPLC/MS analysis. Plasma pharmacokinetics was analyzed by Winnolin software and fitted by a non-compartmental model.
# Male ICR mice weighing 20-22 g were intraperitoneally injected with Compound 20 (1.5 mg/kg), and then blood was taken from the orbit at 5 min, 10 min, 15 min, 30 min, 1 h, 2 h, 4 h, 6 h, 8 h, 12 h, and 24 h. The heparin anticoagulant was added, placed on ice, and centrifuged at 7000 r/min for 7 min. The plasma was separated for use. 60 μl of acetonitrile was added to 20 μL of the plasma sample obtained after administration, to precipitate the protein. […] Plasma pharmacokinetics was analyzed by Winnolin software and fitted by a non-compartmental model.
# EV71 [2] = assay: In-vitro experiment against EV71 virus (RD cells, MTT); type: cell-based; conditions: for EC50: Enterovirus A, RD cells infected with 100x TCID50 EV71, compound added after 2 hrs, MTT at 48 hrs; for SI: selectivity index, EV71, RD cells
# Experimental: (§1) RD cells were seeded into a 96-well plate (10^4 cells/well), and infected with 100× TCID50 of EV71 viruses. After 2 hrs, various concentrations of the derivative were added. […] Uninfected cells were also given various concentrations of the derivative to determine the CC50.
# [3] = Cytotoxicity in uninfected RD cells (CC50, MTT); type: cell-based; conditions: human, Table 1
# Experimental: as §1
# (§2) RD cells were seeded into a 96-well plate (10^4 cells/well), and infected with 100×TCID50 of CAV16 viruses. After 2 hrs, various concentrations of the derivative were added. […] Uninfected cells were also given various concentrations of the derivative to determine the CC50.
# CAV16 = assay: In-vitro experiment against Coxsackievirus A16 (CAV16) (RD cells, MTT); type: cell-based, Coxsackievirus Virus A16 (CAV16); conditions: for EC50: Coxsackievirus, RD cells infected with 100x TCID50 CAV16, compound added after 2 hrs, MTT at 48 hrs; for SI: selectivity index, CAV16, RD cells
# Experimental: as §2
# EV71 [4] = assay: Therapeutic effect on EV71-infected mice; type: in vivo, ICR mice; conditions: 7 days
# Experimental: 10-day-old SPF grade ICR mice (female:male 1:1) were used. A placebo group and a treatment group with Compound 1 were set, each group having 10 mice. The mice were infected with the virus by intraperitoneal injection. 2 hrs after infection, the mice were administered by intraperitoneal injection. The dosage of Compound 1 was set to 1 mg/kg body weight/day. The mice in the placebo group were injected with the same dose of normal saline, and the mice in each group were administered once a day for consecutive 7 days. From the day of virus infection, the observation was made twice a day for 14 days. The weight, symptoms and survival rate of the mice were recorded.
# [5] = Toxicity test in ICR mice after single administration by intraperitoneal injection; type: in vivo
# Experimental: 22 10-day-old ICR mice were randomly assigned to 17 groups, and given Compound 6 once by intraperitoneal injection at a dosage of 0.625, 1.25, 2.5, 5, 10, 20, 40, 80, 100, 160, 200, 250, 300, 470, 500, 1000, or 2000 mg/kg. 1-2 animals were included in each group, and the male and female mice were administered alternately. […] The dead animals are necropsied and the changes in main organs were observed. On day 1 after administration, the weight of the animals in the 160 mg/kg group is decreases by 0.3 g, and the weight of the animals in the 0.625, 1.25, 2.5, 5, 10, 20, 40, 80, 100 mg/kg group is increased, compared to the day of administration. Under the conditions in this experiment, ICR mice were given Compound 6 once by intraperitoneal injection. The minimum lethal dose was 200 mg/kg and the maximum tolerated dose was 160 mg/kg.
# 24 10-day-old ICR mice were randomly assigned to 19 groups, and given Compound 6 once by intraperitoneal injection at a dosage of 0.625, 1.25, 2.5, 5, 10, 20, 40, 60, 80, 100, 120, 136, 160, 270, 320, 500, 690, 1000, or 2000 mg/kg. 1-2 animals were included in each group, and the male and female mice were administered alternately. […] The dead animals are necropsied and the changes in main organs were observed. […] Under the conditions in this experiment, ICR mice were given Compound 20 once by intraperitoneal injection.
# [6] = test system: Salmonella typhimurium TA100; assay: Test of reverse mutation in histidine-deficient Salmonella typhimurium, strain TA100; type: cell-based; conditions: for Number of colonies TA100(−S9): solvent control 165.3 ± 10.7; for Number of colonies TA100(+S9): solvent control 170.7 ± 10.9
# Experimental: (§3) The mutagenic effect of Compound 6 on the strains TA100 and TA102 was detected by determining the reverse mutation in histidine-deficient Salmonella typhimurium by pre-loaded culture dish method. The dosage of Compound 6 is 8, 40, 200, 1000, or 5000 μg/dish under activated and non-activated conditions, and the mutagenic effects on TA100 and TA102 were tested.
# [7] = test system: Salmonella typhimurium TA102; assay: Test of reverse mutation in histidine-deficient Salmonella typhimurium, strain TA102; type: cell-based; conditions: for Number of colonies TA102(−S9): solvent control 225.0 ± 7.5; for Number of colonies TA102(+S9): solvent control 236.5 ± 5.0
# Experimental: as §3
# [8] = 8-5000 μg/dish, activated and non-activated conditions
molecule,measurement,setting,value
1-(4-fluoro-phenoxyacetyl)-lycorine [Compound 6],t1/2z,"[1]; title: metabolite of Compound 6, individual animals 1-3, 1.5 mg/kg",25.719 h and 14.311 h and 26.875 h
same,t1/2z Mean ± SD,"[1]; title: metabolite of Compound 6, mean of 3",22.3 ± 6.94 h
"O=C(COc1ccccc1)OC1C(O)C=C2CCN3Cc4cc5c(cc4C1C23)OCO5 (stereo not shown) [Compound 1, 1-phenoxyacetyl-lycorine]",EC50,EV71 [2],1640 nM
same,SI,EV71 [2],72.41
same,CC50 at 48 h,[3],119000 nM
same,EC50,CAV16,1190 nM
same,SI,CAV16,99.80
same,mortality rate,"EV71 [4]; 10-day-old ICR mice infected ip with EV71, 1 mg/kg body weight/day ip, observed 14 days, placebo 100%",40%
same,recovery of surviving mice,"EV71 [4]; EV71-infected ICR mice, 1 mg/kg/day ip, after 14 days",the surviving mice recover to normal after 14 days
same,"symptoms, weight loss and paralysis","EV71 [4]; EV71-infected ICR mice, 1 mg/kg/day ip, versus placebo","reduced symptoms, and significantly alleviated weight loss and paralysis"
"O=C(CSc1ccccc1)OC1C(O)C=C2CCN3Cc4cc5c(cc4C1C23)OCO5 (stereo not shown) [Compound 2, 1-phenylthioacetyl-lycorine]",EC50,EV71 [2],1650 nM
same,SI,EV71 [2],69.35
same,CC50 at 48 h,[3],114000 nM
same,EC50,CAV16,570 nM
same,SI,CAV16,200.73
"O=C(COc1ccc(F)cc1)OC1C(O)C=C2CCN3Cc4cc5c(cc4C1C23)OCO5 (stereo not shown) [Compound 6, 1-(4-fluoro-phenoxyacetyl)-lycorine]",EC50,EV71 [2],1270 nM
same,SI,EV71 [2],103.30
same,CC50 at 48 h,[3],131000 nM
same,minimum lethal dose,"[5]; 10-day-old ICR mice, single intraperitoneal injection, observed 14 days",200 mg/kg
same,MTD at 14 days,"[5]; both sexes, ICR, mouse, in vivo, ip",160 mg/kg
same,Weight on day 1 after administration,"[5]; mouse, in vivo, ip, 0.625 mg/kg",7.3
same,Weight on day 1 after administration,"[5]; mouse, in vivo, ip, 5 mg/kg",6.9
same,Weight on day 1 after administration,"[5]; mouse, in vivo, ip, 10 mg/kg",6.5
same,Weight on day 1 after administration,"[5]; mouse, in vivo, ip, 20 mg/kg",7.5
same,Weight on day 1 after administration,"[5]; mouse, in vivo, ip, 40 mg/kg",7.7
same,Weight on day 1 after administration,"[5]; mouse, in vivo, ip, 80 mg/kg",7.3
same,Weight on day 1 after administration,"[5]; mouse, in vivo, ip, 100 mg/kg",7.3
same,Weight on day 1 after administration,"[5]; mouse, in vivo, ip, 160 mg/kg",6.3
same,Number of colonies TA100(−S9),[6]; 8 μg/dish,152.7 ± 9.4
same,Number of colonies TA100(+S9),[6]; 8 μg/dish,159.3 ± 11.3
same,Number of colonies TA100(−S9),[6]; 40 μg/dish,141.8 ± 5.9
same,Number of colonies TA100(+S9),[6]; 40 μg/dish,158.7 ± 10.7
same,Number of colonies TA100(−S9),[6]; 200 μg/dish,152.7 ± 9.5
same,Number of colonies TA100(+S9),[6]; 200 μg/dish,158.5 ± 11.5
same,Number of colonies TA100(−S9),[6]; 1000 μg/dish,113.0 ± 14.2
same,Number of colonies TA100(+S9),[6]; 1000 μg/dish,127.7 ± 10.1
same,Number of colonies TA100(−S9),[6]; 5000 μg/dish,110.5 ± 7.8
same,Number of colonies TA100(+S9),[6]; 5000 μg/dish,114.7 ± 3.8
same,mutagenic effect on TA100,[6]; [8],negative
same,Number of colonies TA102(−S9),[7]; 8 μg/dish,223.0 ± 9.1
same,Number of colonies TA102(+S9),[7]; 8 μg/dish,235.0 ± 9.6
same,Number of colonies TA102(−S9),[7]; 40 μg/dish,205.0 ± 14.6
same,Number of colonies TA102(+S9),[7]; 40 μg/dish,222.5 ± 9.3
same,Number of colonies TA102(−S9),[7]; 200 μg/dish,192.8 ± 18.6
same,Number of colonies TA102(+S9),[7]; 200 μg/dish,208.3 ± 6.8
same,Number of colonies TA102(−S9),[7]; 1000 μg/dish,182.3 ± 10.3
same,Number of colonies TA102(+S9),[7]; 1000 μg/dish,195.2 ± 8.6
same,Number of colonies TA102(−S9),[7]; 5000 μg/dish,147.2 ± 20.3
same,Number of colonies TA102(+S9),[7]; 5000 μg/dish,180.7 ± 11.7
same,mutagenic effect on TA102,[7]; [8],negative
O[C@H]1[C@H]2c3cc4c(cc3CN3CCC(=C[C@@H]1O)[C@H]23)OCO4 [Lycorine],EC50,EV71 [2],2260 nM
same,SI,EV71 [2],46.24
same,CC50 at 48 h,[3],105000 nM
same,EC50,CAV16,1570 nM
same,SI,CAV16,66.57
